# Source: patent US20230277570A1, “ENPP1 Inhibitors and Their Use for the Treatment of Cancer” (The Board of Trustees of the Leland Stanford Junior …, priority 2017, published 2023)
# Columns and labels:
# [1] = biological target: T1, purified recombinant mouse ENPP1 (Mus musculus (Mouse), UniProt P06802); assay: ENPP1 activity assay using thymidine monophosphate paranitrophenol (TMP-pNP) as a substrate; assay type: biochemical; conditions: TMP-pNP 2 μM, mouse ENPP1 0.5 nM, pH 7.5
# Experimental: Selected compounds of Table 1, Table 2 and other derivatives were prepared and assessed in an ENPP1 activity assay using thymidine monophosphate paranitrophenol (TMP-pNP) as a substrate. Enzyme reactions were prepared with TMP-pNP (2 μM), 5-fold dilutions of ENPP1 inhibitor, and purified recombinant mouse ENPP1 (0.5 nM) in 100 mM Tris, 150 mM NaCl, 2 mM CaCl2, 200 μM ZnCl2, pH 7.5 at room temperature. Reaction progress was monitored by measuring absorbance at 400 nm of paranitrophenolate produced by the reaction for 20 minutes.
# [2] = biological target: T1, purified recombinant mouse ENPP1; assay: ENPP1 enzyme activity assay using 32P cGAMP as a substrate (TLC); assay type: biochemical; conditions: 32P-cGAMP 5 μM, mouse ENPP1 20 nM, pH 7.5, 5 hours
# 4T1-luciferase tumor = assay: 4T1 tumor model: tumor volume and survival with IR, cGAMP, anti-CTLA-4; assay type: in vivo, Balb/c mice; conditions: 20 Gy IR, then single agent intratumorally on day 2, 4 and 7 (100 μL of 100 μM compound 1 or 10 μg cGAMP)
# T1 sequence (P06802 whole entry): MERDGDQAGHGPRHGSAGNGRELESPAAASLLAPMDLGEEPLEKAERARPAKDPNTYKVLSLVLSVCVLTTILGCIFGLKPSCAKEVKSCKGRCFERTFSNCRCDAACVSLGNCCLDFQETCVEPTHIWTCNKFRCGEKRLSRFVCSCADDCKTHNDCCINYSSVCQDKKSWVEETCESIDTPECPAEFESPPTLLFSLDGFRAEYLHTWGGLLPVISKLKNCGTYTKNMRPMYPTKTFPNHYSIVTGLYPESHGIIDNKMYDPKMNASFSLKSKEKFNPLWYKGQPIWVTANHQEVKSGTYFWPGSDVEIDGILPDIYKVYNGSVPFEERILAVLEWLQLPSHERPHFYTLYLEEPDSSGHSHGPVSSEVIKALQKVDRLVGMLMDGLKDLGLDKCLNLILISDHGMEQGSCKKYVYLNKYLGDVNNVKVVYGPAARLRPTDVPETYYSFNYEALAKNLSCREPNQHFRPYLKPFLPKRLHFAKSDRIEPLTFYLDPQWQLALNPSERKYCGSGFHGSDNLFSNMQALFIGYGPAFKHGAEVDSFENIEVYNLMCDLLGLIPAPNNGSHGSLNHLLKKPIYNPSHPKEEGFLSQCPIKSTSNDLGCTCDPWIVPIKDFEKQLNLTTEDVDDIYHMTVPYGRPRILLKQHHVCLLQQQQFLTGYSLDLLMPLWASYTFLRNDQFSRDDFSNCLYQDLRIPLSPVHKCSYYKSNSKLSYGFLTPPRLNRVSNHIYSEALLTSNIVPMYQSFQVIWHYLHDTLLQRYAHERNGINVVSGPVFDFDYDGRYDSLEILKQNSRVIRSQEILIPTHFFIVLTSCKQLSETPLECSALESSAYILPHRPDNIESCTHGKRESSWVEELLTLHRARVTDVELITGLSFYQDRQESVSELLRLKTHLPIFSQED
IC50 [1] [µM],IC50 [2] [µM],Compound,tumor shrinkage effect over IR treatment (4T1-luciferase tumor)
< 0.5,–,O=P(O)(O)CCC1CCN(c2ncnc3cc(O)ccc23)CC1 [Compound 5],–
< 0.5,–,COc1cc(OC)c2ncnc(N3CCC(CCP(=O)(O)O)CC3)c2c1 [Compound 7],–
< 0.5,< 0.5,COc1ccc2c(N3CCC(CCP(=O)(O)O)CC3)ncnc2c1 [Compound 10],–
> 10,–,CC(C)Oc1ccc2c(N3CCC(CCP(=O)(O)O)CC3)ncnc2c1 [Compound 11],–
0.5 to 5,–,O=P(O)(O)CCC1CCN(c2ncnc3cc4c(cc23)OCCO4)CC1 [Compound 13],–
0.5 to 5,–,COc1ccc(OC)c2c(N3CCC(CCP(=O)(O)O)CC3)ncnc12 [Compound 16],–
< 0.5,–,COc1ccc2ncnc(N3CCC(CCP(=O)(O)O)CC3)c2c1 [Compound 19],–
< 0.5,–,COc1ccc2c(N3CCC(CCP(=O)(O)O)CC3)ncnc2c1OC [Compound 22],–
0.5 to 5,–,O=P(O)(O)CCC1CCN(c2ncnc3ccc(O)cc23)CC1 [Compound 23],–
< 0.5,–,O=P(O)(O)CCC1CCN(c2ncnc3ccccc23)CC1 [Compound 25],–
< 0.5,–,Nc1ccc2c(N3CCC(CCP(=O)(O)O)CC3)ncnc2c1 [Compound 30],–
< 0.5,–,COc1cc2ncnc(N3CCC(COP(=O)(O)O)CC3)c2cc1OC [Compound 60],–
< 0.5,–,O=P(O)(O)CCC1CCN(c2ncnc3cccc(F)c23)CC1 [Compound 70],–
< 0.5,–,O=P(O)(O)CCC1CCN(c2ncnc3cc(Cl)ccc23)CC1 [Compound 84],–
< 0.5,–,"COc1cc2ncnc(N3CCC(CP(=O)(O)O)CC3)c2cc1OC [Compound 88, ((1-(6,7-dimethoxyquinazolin-4-yl)piperidin-4-yl)methyl)phosphonic acid]",–

# More lines, now with the values behind:
Compound,IC50 [1] [µM],IC50 [2] [µM],tumor shrinkage effect over IR treatment (4T1-luciferase tumor)
COc1ccc2c(N3CCC(CCP(=O)(O)O)CC3)nc(C)nc2c1 [Compound 12],< 0.5,–,–
COc1ccc2c(N3CCC(CCP(=O)(O)O)CC3)nc(/C=C/c3cccnc3)nc2c1 [Compound 18],< 0.5,< 0.5,–
COc1cc2ccnc(N3CCC(CCP(=O)(O)O)CC3)c2cc1OC [Compound 38],< 0.5,–,–
COc1ccc2c(N3CCN(CCP(=O)(O)O)CC3)ncnc2c1 [Compound 42],> 10,–,–
COc1cc2ncnc(N3CCC(CC(=O)NO)CC3)c2cc1OC [Compound 61],0.5 to 5,–,–
COc1cc2ncnc(N3CCC(COP(O)(O)=S)CC3)c2cc1OC [Compound 67],< 0.5,–,–
COc1cc2nccc(N3CCC(CCP(=O)(O)O)CC3)c2cc1OC [Compound 71],< 0.5,–,–
CNC(=O)NCC1CCN(c2ncnc3cc(OC)c(OC)cc23)CC1 [Compound 73],> 10,–,–
COc1cc2ncnc(N3CCN(C(=O)CP(=O)(O)O)CC3)c2cc1OC [Compound 75],< 0.5,0.5 to 5,–
COc1cccc2c(N3CCC(CCP(=O)(O)O)CC3)ncnc12 [Compound 76],< 0.5,< 0.5,–
"COc1cc2ncnc([C@H]3CC[C@@H](CCP(=O)(O)O)CC3)c2cc1OC [Compound 81, (2-((1,4-cis)-4-(6,7-dimethoxyquinazolin-4-yl)cyclohexyl)ethyl)phosphonic acid]",< 0.5,–,–
"COc1cc2ncnc([C@H]3CC[C@H](CCP(=O)(O)O)CC3)c2cc1OC [Compound 82, (2-((1,4-trans)-4-(6,7-dimethoxyquinazolin-4-yl)cyclohexyl)ethyl)phosphonic acid]",< 0.5,–,–
"COc1cc2ncnc(N3CCC(CCP(O)(O)=S)CC3)c2cc1OC [Compound 83, (2-(1-(6,7-dimethoxyquinazolin-4-yl)piperidin-4-yl)ethyl)phosphonothioic O,O-acid]",< 0.5,–,–
COc1cccc2c(N3CCC(COP(=O)(O)O)CC3)ncnc12 [Compound 86],< 0.5,–,–
COc1cc2ncnc(N3CCC(CCB(O)O)CC3)c2cc1OC [Compound 87],< 0.5,–,–
Cc1nccn1-c1cc(N2CCC(CCP(=O)(O)O)CC2)ncn1 [Compound 93],< 0.5,–,–
Cc1nccn1-c1cc(N2CCN(CCP(=O)(O)O)CC2)ncn1 [Compound 100],< 0.5,–,–
"Nc1nc2c(ncn2[C@@H]2O[C@@H]3COP(=O)(O)O[C@H]4[C@@H](O)[C@H](n5cnc6c(N)ncnc65)O[C@@H]4COP(=O)(O)O[C@@H]2[C@@H]3O)c(=O)[nH]1 [cGAMP, cyclic guanosine monophosphate-adenosine monophosphate]",–,–,no effect over IR treatment
